The values that follow come from ChEMBL document CHEMBL5291721, “A preclinical secondary pharmacology resource illuminates target-adverse drug reaction associations of marketed drugs” (Nat Commun, 2023).

A value given as a limit tells only on which side of the number the result lay.

Experiment [1] concerns the target Kappa-type opioid receptor (Homo sapiens, UniProt P41145).
For experiment [2], the target named is Delta-type opioid receptor (Homo sapiens, UniProt P41143).
The target in experiment [3] is 5-hydroxytryptamine receptor 2B (Homo sapiens, UniProt P41595). The format is functional, cell-based.
For experiment [4], the target named is T1, Prostaglandin G/H synthase 1 (Rattus norvegicus, UniProt Q63921).
T1 sequence (Q63921 whole entry): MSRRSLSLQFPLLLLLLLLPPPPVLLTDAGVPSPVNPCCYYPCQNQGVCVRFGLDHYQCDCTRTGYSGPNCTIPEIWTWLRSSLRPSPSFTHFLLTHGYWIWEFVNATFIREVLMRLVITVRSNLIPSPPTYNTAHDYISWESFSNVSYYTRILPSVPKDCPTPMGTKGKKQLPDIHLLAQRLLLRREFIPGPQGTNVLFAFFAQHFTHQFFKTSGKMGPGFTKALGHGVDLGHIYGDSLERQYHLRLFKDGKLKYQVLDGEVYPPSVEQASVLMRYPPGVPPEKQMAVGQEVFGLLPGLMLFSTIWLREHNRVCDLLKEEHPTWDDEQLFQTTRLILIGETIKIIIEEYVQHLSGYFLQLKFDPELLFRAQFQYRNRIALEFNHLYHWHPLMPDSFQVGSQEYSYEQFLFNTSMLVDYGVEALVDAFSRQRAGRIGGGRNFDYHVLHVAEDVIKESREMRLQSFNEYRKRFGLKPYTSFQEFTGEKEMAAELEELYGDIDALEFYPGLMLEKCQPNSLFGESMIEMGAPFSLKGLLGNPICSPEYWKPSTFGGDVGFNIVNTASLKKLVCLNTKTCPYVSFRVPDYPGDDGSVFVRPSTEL
The format is functional.

The target in experiment [5] is T2, 5-hydroxytryptamine receptor 1A (Homo sapiens, UniProt P08908).
T2 sequence (P08908 whole entry): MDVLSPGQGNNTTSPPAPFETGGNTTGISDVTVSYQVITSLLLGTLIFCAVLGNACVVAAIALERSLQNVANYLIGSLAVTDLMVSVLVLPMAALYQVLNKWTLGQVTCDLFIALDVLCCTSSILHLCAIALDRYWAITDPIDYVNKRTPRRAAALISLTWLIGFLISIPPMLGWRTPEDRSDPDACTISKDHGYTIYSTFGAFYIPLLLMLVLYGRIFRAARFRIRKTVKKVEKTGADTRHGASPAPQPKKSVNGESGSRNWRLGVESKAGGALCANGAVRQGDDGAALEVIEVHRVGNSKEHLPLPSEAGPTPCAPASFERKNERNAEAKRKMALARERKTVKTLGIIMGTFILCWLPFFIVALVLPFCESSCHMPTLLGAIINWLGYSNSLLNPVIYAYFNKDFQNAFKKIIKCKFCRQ
Type of experiment: functional, cell-based.

For experiment [6], the target named is T3, Muscarinic acetylcholine receptor M2 (Homo sapiens, UniProt P08172).
T3 sequence (P08172 whole entry): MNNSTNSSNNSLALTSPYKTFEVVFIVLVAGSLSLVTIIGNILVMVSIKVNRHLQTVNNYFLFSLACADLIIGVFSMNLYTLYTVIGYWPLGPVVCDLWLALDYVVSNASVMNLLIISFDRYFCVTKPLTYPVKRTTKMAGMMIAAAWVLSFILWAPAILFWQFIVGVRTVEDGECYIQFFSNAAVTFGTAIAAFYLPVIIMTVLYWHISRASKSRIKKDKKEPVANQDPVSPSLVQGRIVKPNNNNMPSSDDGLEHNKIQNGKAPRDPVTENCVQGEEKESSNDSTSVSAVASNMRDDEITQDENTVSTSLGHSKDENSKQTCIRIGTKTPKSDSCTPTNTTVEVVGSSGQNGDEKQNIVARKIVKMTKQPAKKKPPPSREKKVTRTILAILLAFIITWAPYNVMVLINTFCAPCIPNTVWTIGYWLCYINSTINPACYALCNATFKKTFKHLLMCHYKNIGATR
The format is functional, cell-based.

For the next experiment, the target named is T4, B2 bradykinin receptor (Homo sapiens, UniProt P30411).
T4 sequence (P30411 whole entry): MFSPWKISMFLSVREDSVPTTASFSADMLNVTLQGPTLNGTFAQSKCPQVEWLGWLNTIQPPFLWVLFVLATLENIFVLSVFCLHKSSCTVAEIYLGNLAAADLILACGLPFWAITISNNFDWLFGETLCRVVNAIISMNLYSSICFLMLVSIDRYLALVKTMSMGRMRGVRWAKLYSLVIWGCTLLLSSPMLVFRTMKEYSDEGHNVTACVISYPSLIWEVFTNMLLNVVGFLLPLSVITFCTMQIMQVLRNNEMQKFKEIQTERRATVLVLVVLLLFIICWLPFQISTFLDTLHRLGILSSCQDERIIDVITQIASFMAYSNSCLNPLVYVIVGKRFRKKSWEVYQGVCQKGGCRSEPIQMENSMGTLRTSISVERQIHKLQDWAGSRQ

In experiment [7] the target is T5, Alpha-2A adrenergic receptor (Homo sapiens, UniProt P08913).
T5 sequence (P08913 whole entry): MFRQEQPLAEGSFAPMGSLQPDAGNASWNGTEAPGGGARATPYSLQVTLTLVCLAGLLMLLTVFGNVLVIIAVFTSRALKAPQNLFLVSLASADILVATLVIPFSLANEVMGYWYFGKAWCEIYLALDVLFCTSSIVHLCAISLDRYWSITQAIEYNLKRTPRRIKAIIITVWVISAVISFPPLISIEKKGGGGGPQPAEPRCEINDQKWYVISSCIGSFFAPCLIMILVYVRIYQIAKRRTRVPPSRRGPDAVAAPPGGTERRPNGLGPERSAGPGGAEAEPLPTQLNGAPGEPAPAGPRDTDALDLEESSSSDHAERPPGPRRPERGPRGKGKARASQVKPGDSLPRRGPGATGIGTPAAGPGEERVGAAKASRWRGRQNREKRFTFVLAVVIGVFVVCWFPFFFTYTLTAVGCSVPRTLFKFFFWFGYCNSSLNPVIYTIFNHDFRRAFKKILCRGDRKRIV
Type of experiment: functional, cell-based.

The target in another experiment is T6, Adenosine receptor A1 (Homo sapiens, UniProt P30542).
T6 sequence (P30542 whole entry): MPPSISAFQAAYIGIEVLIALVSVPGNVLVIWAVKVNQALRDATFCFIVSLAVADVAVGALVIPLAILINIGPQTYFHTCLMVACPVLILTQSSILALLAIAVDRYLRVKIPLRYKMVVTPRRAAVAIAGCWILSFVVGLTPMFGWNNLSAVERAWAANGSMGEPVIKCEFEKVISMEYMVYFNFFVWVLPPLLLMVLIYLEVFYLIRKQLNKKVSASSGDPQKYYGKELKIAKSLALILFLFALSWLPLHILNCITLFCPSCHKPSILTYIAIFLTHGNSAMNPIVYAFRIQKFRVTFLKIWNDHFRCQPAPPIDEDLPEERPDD

For experiment [8], the target named is Voltage-dependent L-type calcium channel subunit alpha-1C (Rattus norvegicus, UniProt P22002). Type of experiment: functional.
Note: assay procedure not described here.

Chain of Delta-type opioid receptor (P41143 whole entry): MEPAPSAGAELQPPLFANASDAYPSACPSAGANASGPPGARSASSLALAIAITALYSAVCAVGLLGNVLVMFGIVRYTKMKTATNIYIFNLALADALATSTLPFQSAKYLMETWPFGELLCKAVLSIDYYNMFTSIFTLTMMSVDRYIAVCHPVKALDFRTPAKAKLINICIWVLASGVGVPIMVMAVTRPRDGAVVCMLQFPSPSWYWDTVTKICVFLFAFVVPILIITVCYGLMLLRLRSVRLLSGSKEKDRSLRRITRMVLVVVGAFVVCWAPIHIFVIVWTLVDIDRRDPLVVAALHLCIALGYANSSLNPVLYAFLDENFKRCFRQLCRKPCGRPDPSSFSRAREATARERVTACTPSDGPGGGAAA
Chain of Voltage-dependent L-type calcium channel subunit alpha-1C (P22002 whole entry): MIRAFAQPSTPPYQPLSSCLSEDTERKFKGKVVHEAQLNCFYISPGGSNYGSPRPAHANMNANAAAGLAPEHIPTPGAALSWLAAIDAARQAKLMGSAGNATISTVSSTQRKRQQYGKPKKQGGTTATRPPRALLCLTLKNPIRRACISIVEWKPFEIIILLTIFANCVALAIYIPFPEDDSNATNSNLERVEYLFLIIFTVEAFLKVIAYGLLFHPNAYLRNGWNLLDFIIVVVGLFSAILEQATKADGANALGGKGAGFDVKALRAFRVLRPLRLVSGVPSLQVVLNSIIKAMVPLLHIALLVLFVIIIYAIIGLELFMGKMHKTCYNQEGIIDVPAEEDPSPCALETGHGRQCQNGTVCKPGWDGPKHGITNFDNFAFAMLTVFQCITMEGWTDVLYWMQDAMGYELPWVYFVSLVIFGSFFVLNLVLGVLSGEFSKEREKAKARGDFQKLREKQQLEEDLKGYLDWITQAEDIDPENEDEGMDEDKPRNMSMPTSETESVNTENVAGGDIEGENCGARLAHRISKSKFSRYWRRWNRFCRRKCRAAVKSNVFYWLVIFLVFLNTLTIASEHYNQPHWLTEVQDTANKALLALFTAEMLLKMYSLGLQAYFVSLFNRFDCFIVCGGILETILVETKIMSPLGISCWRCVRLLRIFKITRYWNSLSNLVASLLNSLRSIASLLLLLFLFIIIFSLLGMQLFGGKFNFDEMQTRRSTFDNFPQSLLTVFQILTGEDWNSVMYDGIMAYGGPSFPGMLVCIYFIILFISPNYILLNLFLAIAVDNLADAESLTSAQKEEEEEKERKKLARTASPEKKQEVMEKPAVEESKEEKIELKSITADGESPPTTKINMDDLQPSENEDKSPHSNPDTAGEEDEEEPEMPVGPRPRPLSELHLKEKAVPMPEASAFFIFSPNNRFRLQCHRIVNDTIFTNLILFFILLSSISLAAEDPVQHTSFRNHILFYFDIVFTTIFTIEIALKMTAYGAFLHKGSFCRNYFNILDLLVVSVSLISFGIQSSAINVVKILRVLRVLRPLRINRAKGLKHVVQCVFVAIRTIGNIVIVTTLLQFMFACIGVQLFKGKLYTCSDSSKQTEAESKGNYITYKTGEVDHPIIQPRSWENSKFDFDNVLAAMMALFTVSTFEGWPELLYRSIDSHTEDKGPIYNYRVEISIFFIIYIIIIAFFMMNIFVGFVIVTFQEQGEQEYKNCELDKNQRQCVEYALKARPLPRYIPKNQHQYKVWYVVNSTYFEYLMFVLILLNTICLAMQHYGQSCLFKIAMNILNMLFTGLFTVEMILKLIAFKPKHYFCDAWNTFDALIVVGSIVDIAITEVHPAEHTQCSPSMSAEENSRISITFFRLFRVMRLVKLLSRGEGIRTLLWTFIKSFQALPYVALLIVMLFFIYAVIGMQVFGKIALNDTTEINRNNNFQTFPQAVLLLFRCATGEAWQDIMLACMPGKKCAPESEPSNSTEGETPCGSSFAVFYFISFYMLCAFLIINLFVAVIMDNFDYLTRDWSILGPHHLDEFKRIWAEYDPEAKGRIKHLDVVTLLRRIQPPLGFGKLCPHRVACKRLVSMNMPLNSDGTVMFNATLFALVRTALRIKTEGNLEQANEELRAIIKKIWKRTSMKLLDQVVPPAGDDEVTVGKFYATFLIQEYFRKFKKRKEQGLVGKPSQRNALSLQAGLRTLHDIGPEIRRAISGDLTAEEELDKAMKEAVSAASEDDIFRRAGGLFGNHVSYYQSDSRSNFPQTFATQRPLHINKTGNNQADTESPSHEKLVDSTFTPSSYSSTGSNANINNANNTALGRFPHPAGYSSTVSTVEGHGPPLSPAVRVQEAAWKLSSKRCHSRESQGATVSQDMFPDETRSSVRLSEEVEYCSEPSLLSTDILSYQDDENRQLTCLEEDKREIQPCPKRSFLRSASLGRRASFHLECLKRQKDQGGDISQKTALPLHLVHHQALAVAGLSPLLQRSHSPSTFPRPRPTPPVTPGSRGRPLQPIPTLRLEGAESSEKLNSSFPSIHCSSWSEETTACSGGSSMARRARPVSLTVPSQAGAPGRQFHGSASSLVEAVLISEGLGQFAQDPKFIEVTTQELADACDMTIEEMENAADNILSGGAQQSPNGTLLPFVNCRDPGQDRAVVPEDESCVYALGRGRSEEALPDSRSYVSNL
Chain of 5-hydroxytryptamine receptor 2B (P41595 whole entry): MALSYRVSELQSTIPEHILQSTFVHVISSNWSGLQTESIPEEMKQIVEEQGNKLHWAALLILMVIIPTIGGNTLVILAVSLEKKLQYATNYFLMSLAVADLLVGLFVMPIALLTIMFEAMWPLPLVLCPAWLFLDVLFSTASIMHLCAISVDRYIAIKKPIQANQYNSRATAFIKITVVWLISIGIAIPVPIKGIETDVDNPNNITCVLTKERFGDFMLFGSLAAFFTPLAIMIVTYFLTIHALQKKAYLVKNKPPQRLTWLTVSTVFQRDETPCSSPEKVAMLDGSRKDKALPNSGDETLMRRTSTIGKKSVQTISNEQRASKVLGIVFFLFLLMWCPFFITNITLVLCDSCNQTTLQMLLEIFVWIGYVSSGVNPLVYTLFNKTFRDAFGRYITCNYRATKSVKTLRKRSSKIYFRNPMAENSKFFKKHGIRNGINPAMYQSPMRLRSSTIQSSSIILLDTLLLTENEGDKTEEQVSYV
Chain of Kappa-type opioid receptor (P41145 whole entry): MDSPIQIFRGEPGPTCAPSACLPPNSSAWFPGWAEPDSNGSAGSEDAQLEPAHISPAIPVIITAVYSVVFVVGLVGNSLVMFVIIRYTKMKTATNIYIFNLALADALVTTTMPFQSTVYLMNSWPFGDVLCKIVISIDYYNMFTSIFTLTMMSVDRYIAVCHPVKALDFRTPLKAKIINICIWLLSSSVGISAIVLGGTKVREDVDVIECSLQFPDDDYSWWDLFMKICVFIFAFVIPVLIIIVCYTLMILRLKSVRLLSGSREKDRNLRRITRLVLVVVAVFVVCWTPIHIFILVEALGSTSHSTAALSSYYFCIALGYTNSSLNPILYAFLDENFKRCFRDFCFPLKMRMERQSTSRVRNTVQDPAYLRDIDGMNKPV

As a reminder, the AC50 is the concentration at which the activity in the assay is half-maximal. `COc1ccc2cccc(CCNC(C)=O)c2c1` [AGOMELATINE]: the AC50 is more than 10 µM in experiment [1]; more than 30 µM in experiment [2]; more than 30 µM in experiment [3]; more than 30 µM in [4]; more than 30 µM in experiment [5]; more than 30 µM in [6]. The AC50 on B2 bradykinin receptor was more than 30 µM; in experiment [7] it was more than 30 µM; at Adenosine receptor A1, more than 30 µM; in experiment [8], more than 10 µM.

In the case of `Cc1c(O)c(=O)ccn1C` [DEFERIPRONE], the AC50 in [1] is more than 30 µM; in experiment [2], more than 30 µM; in experiment [3], more than 30 µM; in experiment [4], more than 3 µM; in experiment [5], more than 30 µM; in [6] it was more than 30 µM. The AC50 (at B2 bradykinin receptor; in [7]; on Adenosine receptor A1; in experiment [8]) was more than 30 µM throughout.

Regarding `COc1ccc2c(c1)c(CC(=O)OCC(=O)O)c(C)n2C(=O)c1ccc(Cl)cc1` [ACEMETACIN], the AC50 was more than 30 µM in experiment [1]; more than 30 µM in [2]; more than 30 µM in [3]; 30 µM in experiment [4]; more than 30 µM in experiment [5]; more than 30 µM in experiment [6]. In addition, the AC50 (on B2 bradykinin receptor; in experiment [7]; at Adenosine receptor A1; in experiment [8]) was more than 30 µM in each case.

For `CN(C)C(=O)OC1N=C(c2ccccc2)c2cc(Cl)ccc2N(C)C1=O` (stereo not given) [CAMAZEPAM], the AC50 in experiment [1] was more than 10 µM; in experiment [2] it was more than 10 µM; in experiment [3], more than 10 µM; in experiment [4], more than 30 µM; in [5] it was more than 10 µM; in [6], more than 10 µM. Also, the AC50 is more than 30 µM at B2 bradykinin receptor, more than 10 µM in [7], more than 30 µM at Adenosine receptor A1 and more than 10 µM in experiment [8].

As to `CCCCN1CCCCC1C(=O)Nc1c(C)cccc1C` (stereo not given) [BUPIVACAINE], the AC50 in [1], in [2], in experiment [3], in experiment [4], in [5] and in experiment [6] was more than 30 µM in each case. Moreover, the AC50 (at B2 bradykinin receptor; in [7]; at Adenosine receptor A1; in experiment [8]) was more than 30 µM in each case.

As for `Cc1c(Cl)cccc1Nc1ccccc1C(=O)O` [TOLFENAMIC ACID], the AC50 in experiment [1] was more than 30 µM; in experiment [2], more than 30 µM; in experiment [3], more than 30 µM; in experiment [4] it was 0.6 µM; in [5], more than 30 µM; in experiment [6], more than 30 µM. Besides, the AC50 (at B2 bradykinin receptor; in experiment [7]; on Adenosine receptor A1; in [8]) was more than 30 µM each time.

As to `CN1CCC2=C(C1)C(c1ccccc1)c1ccccc12` (stereo not given) [PHENINDAMINE], the AC50 is more than 10 µM in [1]; more than 30 µM in [2]; more than 10 µM in [3]; 0.771 µM in [4]; more than 10 µM in experiment [5]; more than 10 µM in experiment [6]. In addition, the AC50 (on B2 bradykinin receptor; in [7]; at Adenosine receptor A1; in experiment [8]) was more than 10 µM throughout.

`CC(C)C(=O)OCC(=O)[C@@]12O[C@H](C3CCCCC3)O[C@@H]1C[C@H]1[C@@H]3CCC4=CC(=O)C=C[C@]4(C)[C@H]3[C@@H](O)C[C@@]12C` [CICLESONIDE]: the AC50 in experiment [1] was 9.72 µM; in experiment [2], more than 30 µM; in [3] it was more than 10 µM; in [4] it was more than 10 µM; in [5], more than 10 µM; in experiment [6], more than 10 µM. In addition, the AC50 at B2 bradykinin receptor was more than 10 µM; in [7], more than 10 µM; at Adenosine receptor A1, more than 30 µM; in experiment [8], more than 10 µM.
